How the values were obtained:
aP2 mRNA [1] = assay: aP2 mRNA in lymphedema tissue by real time PCR; type: in vivo, mouse
Description: (§1) As mice, Outbred Mice ICR originating from Charles River Laboratories (Wilmington, Mass.) were used. 3 μl of 2% methylene blue as a staining dye for staining lymph nodes and lymphatic vessels was injected into the top of a right foot. After the injection, the right foot was massaged for about 3 minutes to allow a flow of the staining dye through lymphatic vessels to stain the lymphatic system. Zoletil50 (0.6 mg/kg) and Rompun (0.4 mg/kg), which are commercially provided by Bayer Korea, were administered as anesthetic drugs at the maximum content of 100 μl by intraperitoneal injection.
(§2) Specifically, a mouse was anesthetized with the anesthetic drugs (Zoletil50, Rompun), and its chest was shaved to facilitate a surgical operation and suturing, and observation. A small amount (3 μl) of a 2% methylene blue solution was injected into the top of the right foot, and then the injected site was massaged for 3 minutes to allow the staining dye to spread well through the lymphatic vessels. To minimize inflammation which may be caused when lymph nodes in a groin region were excised and lymphatic vessels in a thigh were blocked, a minimum area of the right groin was incised open. […]
(§3) In this example, to investigate a mechanism for inducing reduction in lymphedema, expression of an adipocyte-related marker greatly found in edema was examined. […] An edema tissue was collected, and mRNAs of adipocyte markers such as PPAR-γ and aP2 that are greatly found in edema were quantitatively analyzed by real time PCR, the result of which is shown in FIG. […]
In this example, to investigate a mechanism for inducing reduction in lymphedema, expression of an adipocyte-related marker easily found in edema was examined. […] An edema tissue was collected, and mRNAs of adipocyte markers such as PPAR-γ and aP2, which are greatly found in edema, were quantitatively analyzed by real time PCR, and the result is shown in FIG. […]

aP2 mRNA [2] = assay: aP2 mRNA in lipedema tissue; type: in vivo, mouse; settings: butein injected for 14 days
Description: (§4) Lymph nodes were removed from a mouse leg by a similar method to the method described in Example 1 to induce lipedema in the experimental animal, and an increase in edema was confirmed about 3 days after the removal of the lymph nodes.
(§5) In this example, to investigate a mechanism for inducing the reduction of lipedema, expression of an adipocyte-related marker that is easily found in lipedema was examined. An edema tissue was isolated after butein was injected into lipedema for 14 days, and mRNAs of adipocyte markers, PPAR-γ and aP2, isolated from total RNA were quantified, and the result is shown in FIG. 7. Referring to FIG. 7, it could be confirmed that butein reduced the expression of PPAR-γ and aP2. Therefore, it can be seen that the inhibition of adipocytes by the butein administration has an influence on lipedema reduction.

lymphedema-induced mouse [3] = assay: Lymphedema size after daily injection into the edema site of lymphedema-induced mice (caliper, thigh cross-sectional area); type: in vivo; settings: measured every day, compared to control group
Description: as §1
as §2, with “vessels.” for “vessels. To minimize inflammation which may be caused when lymph nodes in a groin region were excised and lymphatic vessels in a thigh were blocked, a minimum area of the right groin was incised open.”
Each of PBS, hyaluronidase and butein was administered into an edema site of the mouse prepared in Example 1 at 15 mg per kg a day, and the size of edema was measured each day.
The cross-sectional area of lymphedema was calculated from the width and length of the thigh and recorded, and thus a change in size of lymphedema during observation was found.
Each of PBS, hyaluronidase and sulfuretin (15 mg/kg/day) was injected into an edema site of the mouse prepared in Example 1, and the size of edema was measured every day.
FIG. 8 illustrates the inhibition of lymphedema by sulfuretin, and the size measurement was performed on a thigh area present between the knee and the trunk of the lymphedema-induced site of the experimental animal using a caliper. The cross-sectional area of lymphedema was calculated from the width and length of the thigh and recorded, and thus a change in the lymphedema size that occurs in observation was found.
Each of PBS, hyaluronidase and isoflavone (100 mg/kg/day) was injected into an edema site of the mouse prepared in Example 1, and the size of edema was measured every day. […]

PPAR-γ mRNA [4] = assay: PPAR-γ mRNA in lipedema tissue; type: in vivo, mouse; settings: butein injected for 14 days
Description: as §4, §5

PPAR-γ mRNA [5] = assay: PPAR-γ mRNA in lymphedema tissue by real time PCR; type: in vivo, mouse
Description: as §1
Specifically, a mouse was anesthetized with the anesthetic drugs (Zoletil50, Rompun), and its chest was shaved to facilitate a surgical operation and suturing, and observation. […]
as §3, with “FIG. 2 (normal control: control group in which edema was not induced (n=3), edema+PBS: group into which PBS was injected after edema induction (n=4), edema+butein: group into which butein was injected after edema induction (15 mg/kg/day) (n=5)).” for “FIG.”

lymphedema-induced mouse [6] = assay: Lymphedema reduction after subcutaneous injection for 5 days (leg images); type: in vivo; settings: compared to control group
Description: as §1
Specifically, a mouse was anesthetized with the anesthetic drugs (Zoletil50, Rompun), and its chest was shaved to facilitate a surgical operation and suturing, and observation. A small amount (3 μl) of a 2% methylene blue solution was injected into the top of the right foot, and then the injected site was massaged for 3 minutes to allow the staining dye to spread well through the lymphatic vessels. To minimize inflammation which may be caused when lymph nodes in a groin region were excised and lymphatic vessels in a thigh were blocked, a minimum area of the right groin was incised open. Afterward, a superficial inguinal node and popliteal node, and a deep inguinal node, which were stained with methylene blue, were sequentially removed, and the stained lymphatic vessels in the right thigh were blocked using a soldering iron. Since 70 to 80% of the total lymphatic vessels were present in a subcutaneous region, the subcutaneous region in a suturing site was seared with the soldering iron to completely block the lymphatic system under the suturing site, and the right thigh was finally closed by suturing. About 3 days later, an increase in edema was confirmed.
Butein (15 mg/kg/day) was administered into an animal in which lymphedema was induced by lymph excision in Example 1 by subcutaneous injection for 5 days, and the result is shown in FIG. 3. […]

lipedema-induced mouse = assay: Lipedema size after injection into the edema site of lipedema-induced mice (caliper, thigh cross-sectional area); type: in vivo; settings: 15 mg/kg/day injected into edema site, measured every day, versus untreated experimental group
Description: as §4
PBS (control) or butein (15 mg/kg/day) was injected into an edema site of the lipedema-induced mouse prepared in Example 5, and the edema size was measured every day.
A thigh area present between the knee and the trunk of the lipedema-induced site of the experimental animal was measured using a caliper. The cross-sectional area of lipedema was calculated from the width and length of the thigh and recorded, and thus a change in size of lipedema during observation was found.

[7] = 15 mg/kg/day injected into edema site
[8] = 15 mg/kg/day subcutaneous injection for 5 days

For `O=C(/C=C/c1ccc(O)c(O)c1)c1ccc(O)cc1O` [butein], the “mRNA expression of aP2 in edema tissue” value (aP2 mRNA [1]; 15 mg/kg/day for 14 days) was “inhibits”, the “mRNA expression of aP2 in edema tissue” value (aP2 mRNA [2]) was “reduced” and the size of lymphedema (lymphedema-induced mouse [3]; [7]) was “significantly reduced”. For the same molecule, the “mRNA expression of PPAR-γ in edema tissue” value (shortened to “mRNA expression of PPAR-γ”) (PPAR-γ mRNA [4]) was “reduced”, the “mRNA expression of PPAR-γ” value (PPAR-γ mRNA [5]; 15 mg/kg/day for 14 days) was “inhibits” and the size of lymphedema (lymphedema-induced mouse [6]; [8]) was “significantly reduced”. For the same molecule, the “edema size (lipedema)” value (lipedema-induced mouse) was “more rapidly and greatly reduced”.

In the case of `O=c1c(-c2ccccc2)coc2ccccc12` [isoflavone], the “mRNA expression of aP2 in edema tissue” value (aP2 mRNA [1]; 100 mg/kg/day for 14 days) is reported as “inhibits”, the size of lymphedema (lymphedema-induced mouse [3]; 100 mg/kg/day injected into edema site) is reported as “significantly reduced” and the “mRNA expression of PPAR-γ” value (PPAR-γ mRNA [5]; 100 mg/kg/day for 14 days) is reported as “inhibits”. The size of lymphedema (lymphedema-induced mouse [6]; 100 mg/kg/day subcutaneous injection for 5 days) was “significantly reduced”.

In the case of `O=C1/C(=C/c2ccc(O)c(O)c2)Oc2cc(O)ccc21` [sulfuretin], the “mRNA expression of aP2 in edema tissue” value (aP2 mRNA [1]; 15 mg/kg/day for 14 days) is reported as “inhibits”, the size of lymphedema (lymphedema-induced mouse [3]; [7]) is reported as “significantly reduced” and the size of lymphedema (lymphedema-induced mouse [6]; [8]) is reported as “significantly reduced”.
